# Results taken from PubChem BioAssay AID1328 (NMMLSC, 2008).
# Active and inactive are the calls of the source. The rule behind the calls is not given here.
# Molecular target: Apoptosis regulator Bcl-2 (Homo sapiens) (UniProt P10415)
# Assay: Bim-Bcl-2 binding modulators, biochemical, multiplexed, high-throughput, human Bcl-2 (AID 1328)
# Details: Bead-based flow cytometry, fluorescent Bim peptide-Bcl-2 binding
# Apoptosis regulator Bcl-2 (Homo sapiens), sequence (P10415 whole entry, looked up): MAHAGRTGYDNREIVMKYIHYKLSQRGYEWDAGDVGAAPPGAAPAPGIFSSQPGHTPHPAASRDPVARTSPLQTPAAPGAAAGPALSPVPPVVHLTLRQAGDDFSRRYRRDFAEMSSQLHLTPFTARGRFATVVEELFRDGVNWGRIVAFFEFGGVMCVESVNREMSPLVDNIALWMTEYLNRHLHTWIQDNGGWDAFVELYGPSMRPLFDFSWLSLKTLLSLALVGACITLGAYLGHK
row,Structure (SMILES),EC50
1,COc1cc(/C=N/Nc2nn3cnnc3c3ccccc23)ccc1O,inactive
2,CCC(=O)N(CC)C1=C(O)c2ccccc2C(=O)C1=O,inactive
3,Clc1ccc2c(N/N=C/c3ccccc3Br)ccnc2c1,inactive

# The next lines start with the values.
row,EC50,Structure (SMILES)
1,inactive,O=[N+]([O-])c1ccc(N/N=C/c2ccc(O)c(O)c2O)c(S(=O)(=O)N2CCOCC2)c1
2,inactive,CN(C)[C@@H]1C(=O)C(C(=O)NCN2CCCC2)=C(O)[C@@]2(O)C(=O)C3=C(O)c4c(O)cccc4[C@@](C)(O)C3CC12 (stereo not given in full)
